From patent US10125138B2, “Triazolotriazinone derivatives having activity a s herbicides” (Syngenta Participations AG, priority 2015, dated 2018)

Legend:
Format in all cases: in vivo
Conditions in all cases: 1000 g/h, evaluated after 13 days, five point scale
[1] = tested on: Amaranthus retoflexus (AMARE); assay: Post-emergence glasshouse herbicide test, Amaranthus retoflexus
Method: (§1) Seeds of a variety of test species are sown in standard soil in pots (Lolium perenne (LOLPE), Solanum nigrum (SOLNI), Amaranthus retoflexus (AMARE), Setaria faberi (SETFA), Echinochloa crus-galli (ECHCG), Ipomoea hederacea (IPOHE)). After cultivation for one day (pre-emergence) or after 8 days cultivation (post-emergence) under controlled conditions in a glasshouse (at 24/16° C., day/night; 14 hours light; 65% humidity), the plants are sprayed with an aqueous spray solution derived from the formulation of the technical active ingredient in acetone/water (50:50) solution containing 0.5% Tween 20 (polyoxyethelyene sorbitan monolaurate, CAS RN 9005-64-5). […] The test plants are then grown in a glasshouse under controlled conditions in a glasshouse (at 24/16° C., day/night; 14 hours light; 65% humidity) and watered twice daily. After 13 days for pre and post-emergence, the test is evaluated for the percentage damage caused to the plant. The biological activities are shown in the following table on a five point scale (5=80-100%; 4=60-79%; 3=40-59%; 2=20-39%; 1=0-19%).

[2] = tested on: Ipomoea hederacea (IPOHE); assay: Post-emergence glasshouse herbicide test, Ipomoea hederacea
Method: as §1

Lolium perenne (LOLPE) [3] = assay: Post-emergence glasshouse herbicide test, Lolium perenne
Method: as §1

[4] = tested on: Amaranthus retoflexus (AMARE); assay: Pre-emergence glasshouse herbicide test, Amaranthus retoflexus
Method: as §1

Solanum nigrum (SOLNI) [5] = assay: Pre-emergence glasshouse herbicide test, Solanum nigrum
Method: (§2) Seeds of a variety of test species are sown in standard soil in pots (Lolium perenne (LOLPE), Solanum nigrum (SOLNI), Amaranthus retoflexus (AMARE), Setaria faberi (SETFA), Echinochloa crus-galli (ECHCG), Ipomoea hederacea (IPOHE)). After cultivation for one day (pre-emergence) or after 8 days cultivation (post-emergence) under controlled conditions in a glasshouse (at 24/16° C., day/night; 14 hours light; 65% humidity), the plants are sprayed with an aqueous spray solution derived from the formulation of the technical active ingredient in acetone/water (50:50) solution containing 0.5% Tween 20 (polyoxyethelyene sorbitan monolaurate, CAS RN 9005-64-5). Compounds are applied at 1000 g/h. The test plants are then grown in a glasshouse under controlled conditions in a glasshouse (at 24/16° C., day/night; 14 hours light; 65% humidity) and watered twice daily. After 13 days for pre and post-emergence, the test is evaluated for the percentage damage caused to the plant. The biological activities are shown in the following table on a five point scale (5=80-100%; 4=60-79%; 3=40-59%; 2=20-39%; 1=0-19%).

Setaria faberi (SETFA) [6] = assay: Post-emergence glasshouse herbicide test, Setaria faberi
Method: as §1

[7] = tested on: Echinochloa crus-galli (ECHCG); assay: Pre-emergence glasshouse herbicide test, Echinochloa crus-galli
Method: as §1

Setaria faberi (SETFA) [8] = assay: Pre-emergence glasshouse herbicide test, Setaria faberi
Method: as §1

Lolium perenne (LOLPE) [9] = assay: Pre-emergence glasshouse herbicide test, Lolium perenne
Method: as §1

[10] = tested on: Ipomoea hederacea (IPOHE); assay: Pre-emergence glasshouse herbicide test, Ipomoea hederacea
Method: as §1

Solanum nigrum (SOLNI) [11] = assay: Post-emergence glasshouse herbicide test, Solanum nigrum
Method: as §2

[12] = tested on: Echinochloa crus-galli (ECHCG); assay: Post-emergence glasshouse herbicide test, Echinochloa crus-galli
Method: as §1

SMILES	percentage damage caused to the plant, POST Application AMARE [1]	percentage damage caused to the plant, POST Application IPOHE [2]	percentage damage caused to the plant, POST Application LOLPE (Lolium perenne (LOLPE) [3])	percentage damage caused to the plant, PRE Application AMARE [4]	percentage damage caused to the plant, PRE Application SOLNI (Solanum nigrum (SOLNI) [5])	percentage damage caused to the plant, POST Application SETFA (Setaria faberi (SETFA) [6])	percentage damage caused to the plant, PRE Application ECHCG [7]	percentage damage caused to the plant, PRE Application SETFA (Setaria faberi (SETFA) [8])	percentage damage caused to the plant, PRE Application LOLPE (Lolium perenne (LOLPE) [9])	percentage damage caused to the plant, PRE Application IPOHE [10]	percentage damage caused to the plant, POST Application SOLNI (Solanum nigrum (SOLNI) [11])	percentage damage caused to the plant, POST Application ECHCG [12]
Cn1nnnc1NC(=O)c1nn2cnn(-c3ccc(C(F)(F)F)cc3)c2nc1=O [Compound 1.022]	5 (5=80-100%)	4 (4=60-79%)	3 (3=40-59%)	5 (5=80-100%)	5 (5=80-100%)	5 (5=80-100%)	5 (5=80-100%)	5 (5=80-100%)	4 (4=60-79%)	4 (4=60-79%)	5 (5=80-100%)	5 (5=80-100%)
Cn1cnnc1NC(=O)c1nn2cnn(-c3ccc(F)cc3)c2nc1=O [Compound 3.001]	3 (3=40-59%)	1 (1=0-19%)	1 (1=0-19%)	3 (3=40-59%)	1 (1=0-19%)	1 (1=0-19%)	1 (1=0-19%)	1 (1=0-19%)	1 (1=0-19%)	1 (1=0-19%)	5 (5=80-100%)	1 (1=0-19%)
CCCn1nnnc1NC(=O)c1nn2cnn(-c3ccccc3)c2nc1=O [Compound 1.014]	5 (5=80-100%)	5 (5=80-100%)	5 (5=80-100%)	5 (5=80-100%)	5 (5=80-100%)	5 (5=80-100%)	5 (5=80-100%)	5 (5=80-100%)	5 (5=80-100%)	5 (5=80-100%)	5 (5=80-100%)	5 (5=80-100%)
CCn1nnnc1NC(=O)c1nn2cnn(-c3cccc(C)c3)c2nc1=O [Compound 1.046]	5 (5=80-100%)	5 (5=80-100%)	–	5 (5=80-100%)	–	5 (5=80-100%)	5 (5=80-100%)	5 (5=80-100%)	–	5 (5=80-100%)	–	5 (5=80-100%)
